Laboratory results: US9708318B2, “Bicyclic heterocycles as FGFR4 inhibitors” (Incyte Corporation, priority 2015, dated 2017)
Where two headings read alike, the source gives them in different places.

Experiments:
FGFR2 = FGFR2 (Homo sapiens (Human), UniProt P21802); experiment: FGFR Enzymatic Assay (FRET peptide phosphorylation), FGFR2; format: biochemical
Protocol: (§1) The inhibitor potency of the exemplified compounds was measured in an enzyme assay that measures peptide phosphorylation using FRET measurements to detect product formation. Inhibitors were serially diluted in DMSO and a volume of 0.5 μL was transferred to the wells of a 384-well plate.
(§2) The enzymes were purchased from Millipore or Invitrogen.
(§3) GraphPad prism3 was used to analyze the data.

FGFR3 enzyme = FGFR3 enzyme (Homo sapiens (Human), UniProt P22607); experiment: FGFR Enzymatic Assay (FRET peptide phosphorylation), FGFR3; format: biochemical; details: read-out: FGFR3 IC50
Protocol: as §1, §3

FGFR4 = FGFR4 (Homo sapiens (Human), UniProt P22455); experiment: FGFR Enzymatic Assay (FRET peptide phosphorylation), FGFR4; format: biochemical
Protocol: as §1, §2, §3

FGFR1 = FGFR1 (Homo sapiens (Human), UniProt P11362); experiment: FGFR Enzymatic Assay (FRET peptide phosphorylation), FGFR1; details: FGFR1 IC50 (nM)
[1] = pre-incubated for 5 to 10 minutes

Chain of FGFR4 (P22455 22-802): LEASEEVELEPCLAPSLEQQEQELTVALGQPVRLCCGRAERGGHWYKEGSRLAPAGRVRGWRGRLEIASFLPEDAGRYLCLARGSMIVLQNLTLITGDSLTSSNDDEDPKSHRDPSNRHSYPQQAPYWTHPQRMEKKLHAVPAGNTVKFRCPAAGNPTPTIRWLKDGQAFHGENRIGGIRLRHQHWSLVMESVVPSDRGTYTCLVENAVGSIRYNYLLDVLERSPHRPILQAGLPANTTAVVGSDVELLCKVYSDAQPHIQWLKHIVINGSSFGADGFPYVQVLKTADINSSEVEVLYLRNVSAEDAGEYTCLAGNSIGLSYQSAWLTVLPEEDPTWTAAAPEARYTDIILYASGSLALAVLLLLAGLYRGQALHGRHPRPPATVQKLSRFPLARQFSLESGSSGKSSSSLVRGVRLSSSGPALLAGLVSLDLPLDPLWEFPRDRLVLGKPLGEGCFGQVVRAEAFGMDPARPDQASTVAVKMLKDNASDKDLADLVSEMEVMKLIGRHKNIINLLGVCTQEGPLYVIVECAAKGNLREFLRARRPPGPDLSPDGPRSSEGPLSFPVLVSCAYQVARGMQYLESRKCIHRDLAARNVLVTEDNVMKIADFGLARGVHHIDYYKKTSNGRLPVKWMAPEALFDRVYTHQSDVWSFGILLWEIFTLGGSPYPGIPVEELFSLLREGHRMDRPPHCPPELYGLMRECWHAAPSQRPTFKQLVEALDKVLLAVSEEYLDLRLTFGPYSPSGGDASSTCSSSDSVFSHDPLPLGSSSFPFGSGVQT
Chain of FGFR2 (P21802 22-821): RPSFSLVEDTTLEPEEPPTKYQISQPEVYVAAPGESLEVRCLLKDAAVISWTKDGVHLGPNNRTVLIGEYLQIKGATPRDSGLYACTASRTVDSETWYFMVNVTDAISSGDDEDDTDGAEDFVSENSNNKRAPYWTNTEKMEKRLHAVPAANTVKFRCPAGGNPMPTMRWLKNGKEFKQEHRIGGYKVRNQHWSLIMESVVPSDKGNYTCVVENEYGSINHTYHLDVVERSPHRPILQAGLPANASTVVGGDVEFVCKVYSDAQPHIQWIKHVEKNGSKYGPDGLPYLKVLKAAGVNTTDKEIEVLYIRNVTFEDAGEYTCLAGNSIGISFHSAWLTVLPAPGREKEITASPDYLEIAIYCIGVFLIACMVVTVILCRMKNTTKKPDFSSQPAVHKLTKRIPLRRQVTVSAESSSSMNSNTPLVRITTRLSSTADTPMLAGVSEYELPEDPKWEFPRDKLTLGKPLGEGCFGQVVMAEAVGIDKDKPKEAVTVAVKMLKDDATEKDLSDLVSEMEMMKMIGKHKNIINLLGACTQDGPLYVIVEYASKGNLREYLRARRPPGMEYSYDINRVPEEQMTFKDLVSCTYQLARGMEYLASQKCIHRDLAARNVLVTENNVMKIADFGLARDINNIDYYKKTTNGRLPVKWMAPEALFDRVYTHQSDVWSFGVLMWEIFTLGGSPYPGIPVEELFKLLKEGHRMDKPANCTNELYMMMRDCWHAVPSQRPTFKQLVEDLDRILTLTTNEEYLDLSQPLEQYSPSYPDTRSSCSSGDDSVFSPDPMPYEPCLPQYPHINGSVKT
Chain of FGFR3 enzyme (P22607 23-806): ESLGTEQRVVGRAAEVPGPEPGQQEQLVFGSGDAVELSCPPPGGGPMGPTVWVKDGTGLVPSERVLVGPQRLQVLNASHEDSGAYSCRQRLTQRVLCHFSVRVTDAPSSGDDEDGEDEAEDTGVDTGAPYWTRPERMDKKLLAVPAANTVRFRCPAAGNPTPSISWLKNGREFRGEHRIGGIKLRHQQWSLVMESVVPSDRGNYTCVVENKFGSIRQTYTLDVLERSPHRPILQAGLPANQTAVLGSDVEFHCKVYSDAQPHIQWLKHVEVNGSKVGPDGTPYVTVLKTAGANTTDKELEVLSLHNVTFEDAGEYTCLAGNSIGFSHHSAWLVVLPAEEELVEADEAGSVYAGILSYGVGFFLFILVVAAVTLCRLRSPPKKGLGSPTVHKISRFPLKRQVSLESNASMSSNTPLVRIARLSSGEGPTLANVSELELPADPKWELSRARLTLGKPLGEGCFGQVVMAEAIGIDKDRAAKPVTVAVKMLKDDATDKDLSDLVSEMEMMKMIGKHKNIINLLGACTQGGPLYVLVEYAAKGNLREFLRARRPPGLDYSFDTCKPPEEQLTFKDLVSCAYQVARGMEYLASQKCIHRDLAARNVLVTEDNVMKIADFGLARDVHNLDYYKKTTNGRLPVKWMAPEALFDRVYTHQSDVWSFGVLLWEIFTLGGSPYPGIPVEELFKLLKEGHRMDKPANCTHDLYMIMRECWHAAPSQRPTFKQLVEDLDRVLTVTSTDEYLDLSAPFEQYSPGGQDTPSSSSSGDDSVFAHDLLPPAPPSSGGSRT
Chain of FGFR1 (P11362 22-822): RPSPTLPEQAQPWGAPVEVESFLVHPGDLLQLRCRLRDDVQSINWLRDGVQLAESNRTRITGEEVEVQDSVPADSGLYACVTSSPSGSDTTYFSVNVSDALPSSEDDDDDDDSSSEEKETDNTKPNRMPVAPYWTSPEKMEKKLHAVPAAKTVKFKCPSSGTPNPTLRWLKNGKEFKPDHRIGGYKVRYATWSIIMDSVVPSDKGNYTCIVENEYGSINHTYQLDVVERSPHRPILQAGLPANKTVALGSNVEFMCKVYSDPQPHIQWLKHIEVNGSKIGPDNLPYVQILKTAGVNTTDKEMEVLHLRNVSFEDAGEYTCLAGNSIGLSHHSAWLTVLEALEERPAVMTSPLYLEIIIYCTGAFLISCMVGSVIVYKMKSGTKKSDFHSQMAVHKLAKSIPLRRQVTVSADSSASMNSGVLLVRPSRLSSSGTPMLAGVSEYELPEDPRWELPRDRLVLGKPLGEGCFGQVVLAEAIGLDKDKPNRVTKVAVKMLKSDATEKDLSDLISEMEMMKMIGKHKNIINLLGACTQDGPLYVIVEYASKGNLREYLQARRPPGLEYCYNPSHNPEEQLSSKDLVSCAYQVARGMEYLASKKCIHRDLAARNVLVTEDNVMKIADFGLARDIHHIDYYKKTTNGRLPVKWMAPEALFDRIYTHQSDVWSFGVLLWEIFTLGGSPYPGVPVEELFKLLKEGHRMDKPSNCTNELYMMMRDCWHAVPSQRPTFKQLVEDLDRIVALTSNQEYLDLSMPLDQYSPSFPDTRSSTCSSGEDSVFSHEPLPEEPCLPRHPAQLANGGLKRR

SMILES | IC50 (FGFR2; pre-incubated for 4 hours) | IC50 (FGFR3 enzyme; pre-incubated for 4 hours) | IC50 (FGFR1; pre-incubated for 4 hours) | further results
COc1cc(OC)c(F)c(N2Cc3cnc(-c4cccnc4)cc3C3(CC3)C2=O)c1F [Example 9, 2′-(2,6-difluoro-3,5-dimethoxyphenyl)-6′-(pyridin-3-yl)-1′H-spiro[cyclopropane-1,4′-[2,7]naphthyridin]-3′(2′H)-one] | 30 to 200 nM | 10 to 30 nM | – | IC50 (FGFR2; [1]): 10 to 30 nM; IC50 (FGFR3 enzyme; [1]): 30 to 200 nM; IC50 (FGFR4; [1]): 10 to 30 nM; IC50 (FGFR4; pre-incubated for 4 hours): 10 to 30 nM
COc1cc(OC)c(F)c(N2Cc3cnc(-c4cncc(NS(C)(=O)=O)c4)cc3C3(CC3)C2=O)c1F [Example 15, N-(5-(2′-(2,6-difluoro-3,5-dimethoxyphenyl)-3′-oxo-2′,3′-dihydro-1′H-spiro[cyclopropane-1,4′-[2,7]naphthyridine]-6′-yl)pyridin-3-yl)methanesulfonamide] | 30 to 200 nM | 30 to 200 nM | – | IC50 (FGFR2; [1]): 30 to 200 nM; IC50 (FGFR3 enzyme; [1]): 30 to 200 nM; IC50 (FGFR4; [1]): < 10 nM; IC50 (FGFR4; pre-incubated for 4 hours): < 10 nM
CCN1C(=O)N(c2c(F)c(OC)cc(OC)c2F)Cc2cnc(-c3cn(Cc4cccnc4)nc3C)cc21 [Example 50, 3-(2,6-difluoro-3,5-dimethoxyphenyl)-1-ethyl-7-(3-methyl-1-(pyridin-3-ylmethyl)-1H-pyrazol-4-yl)-3,4-dihydropyrido[4,3-d]pyrimidin-2(1H)-one] | – | – | 30 to 200 nM | –
COc1cc(OC)c(F)c(N2Cc3cnc(-c4cnn(C5CN(S(C)(=O)=O)C5)c4)cc3C3(CC3)C2=O)c1F [Example 55, 2′-(2,6-difluoro-3,5-dimethoxyphenyl)-6′-(1-(1-(methylsulfonyl)azetidin-3-yl)-1H-pyrazol-4-yl)-1′H-spiro[cyclopropane-1,4′-[2,7]naphthyridin]-3′(2′H)-one] | – | – | 10 to 30 nM | –
COc1cc(OC)c(F)c(N2Cc3cnc(-c4cn(C)nc4C)cc3N(c3cccc(C#N)c3)C2=O)c1F [Example 60, 3-(3-(2,6-difluoro-3,5-dimethoxyphenyl)-7-(1,3-dimethyl-1H-pyrazol-4-yl)-2-oxo-3,4-dihydropyrido[4,3-d]pyrimidin-1(2H)-yl)benzonitrile] | – | < 10 nM | – | –
COc1cc(OC)c(F)c(N2Cc3cnc(-c4cn(C)nc4C)cc3N(c3ccc4c(c3)C(=O)N(C)C4)C2=O)c1F [Example 120, 3-(2,6-difluoro-3,5-dimethoxyphenyl)-7-(1,3-dimethyl-1H-pyrazol-4-yl)-1-(2-methyl-3-oxoisoindolin-5-yl)-3,4-dihydropyrido[4,3-d]pyrimidin-2(1H)-one] | – | – | – | IC50 (FGFR2; [1]): 10 to 30 nM; IC50 (FGFR3 enzyme; [1]): 10 to 30 nM
COc1cc(OC)c(F)c(N2Cc3cnc(-c4ccn(C)n4)cc3N(c3ccc(C#N)cc3)C2=O)c1F [Example 142, 4-(3-(2,6-difluoro-3,5-dimethoxyphenyl)-7-(1-methyl-1H-pyrazol-3-yl)-2-oxo-3,4-dihydropyrido[4,3-d]pyrimidin-1(2H)-yl)benzonitrile] | – | – | – | IC50 (FGFR2; [1]): 30 to 200 nM; IC50 (FGFR3 enzyme; [1]): 10 to 30 nM
COc1cc(OC)c(F)c(N2Cc3cnc(-c4cnn(C)c4)cc3N(c3ccc(C#N)cc3)C2=O)c1F [Example 144, 4-(3-(2,6-difluoro-3,5-dimethoxyphenyl)-7-(1-methyl-1H-pyrazol-4-yl)-2-oxo-3,4-dihydropyrido[4,3-d]pyrimidin-1(2H)-yl)benzonitrile] | – | – | – | IC50 (FGFR2; [1]): 10 to 30 nM; IC50 (FGFR3 enzyme; [1]): 10 to 30 nM
